Columns and labels:
Cell line = assay: Tested for cytotoxicities and mean graph midpoint (MGM) for growth inhibition of all 55 human cell lines; type: functional
Tubulin [1] = molecular target: T1, Tubulin (Bos taurus, UniProt Q6B856+Q862F3); assay: Inhibition of polymerization of purified bovine tubulin; type: functional
Tubulin [2] = molecular target: T1, Tubulin; assay: Effective concentration for enhancement of tubulin assembly rate was determined; type: functional
Tubulin (Bos taurus) [3] = molecular target: T2, Tubulin (Bos taurus) (UniProt Q6B856+Q862L2+Q862F3); assay: Compound was evaluated for inhibition of colchicine binding to tubulin in experiment I.; type: protein assay; details: concentration not given here
Tubulin (Bos taurus) [4] = molecular target: T2, Tubulin (Bos taurus); assay: Compound was evaluated for inhibition of colchicine binding to tubulin in experiment II.; type: protein assay; details: concentration not given here

T1 sequence (Q6B856 whole entry): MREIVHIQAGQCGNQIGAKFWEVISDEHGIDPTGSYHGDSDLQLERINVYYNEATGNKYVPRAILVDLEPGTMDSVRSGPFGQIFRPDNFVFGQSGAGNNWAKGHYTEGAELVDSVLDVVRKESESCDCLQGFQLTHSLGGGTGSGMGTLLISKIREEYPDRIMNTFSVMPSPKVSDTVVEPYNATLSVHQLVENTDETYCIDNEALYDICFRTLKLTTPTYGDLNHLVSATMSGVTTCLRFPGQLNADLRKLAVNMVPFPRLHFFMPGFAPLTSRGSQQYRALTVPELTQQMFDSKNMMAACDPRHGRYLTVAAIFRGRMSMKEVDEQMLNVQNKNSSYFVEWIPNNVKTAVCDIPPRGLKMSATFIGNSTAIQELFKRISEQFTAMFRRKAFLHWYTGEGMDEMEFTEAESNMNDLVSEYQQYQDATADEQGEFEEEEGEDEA
T1 sequence (Q862F3 whole entry): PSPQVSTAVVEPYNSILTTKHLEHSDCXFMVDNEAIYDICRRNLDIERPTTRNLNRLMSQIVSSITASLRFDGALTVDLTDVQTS

IC50 (Tubulin [1]) [µM] | EC50 (Tubulin [2]) [µM] | SMILES | MGM (Cell line) [µM] | inhibition (Tubulin (Bos taurus) [3]) [%] | inhibition (Tubulin (Bos taurus) [4]) [%]
5.5 | – | CCOc1cc2c(cc1OC(C)=O)C(=O)CCC1C2CC[C@@]2(C)C1CC[C@@H]2OC(C)=O (some centres undefined) | >100 | – | –
– | – | CCOc1cc2c(cc1O)/C(=N\O)C[C@@H]1[C@@H]2CC[C@]2(C)[C@@H](O)CC[C@@H]12 | 0.079 | – | –
30 | – | CCOc1cc2c(cc1O)/C(=N/OC)CCC1C2CC[C@@]2(C)C1CC[C@@H]2O (some centres undefined) | 24 | – | –
80 | – | CCOc1cc2c(cc1O)C/C(=N\NS(=O)(=O)c1ccc(C)cc1)CC1C2CC[C@@]2(C)C1CC[C@@H]2O (some centres undefined) | 15.5 | – | –
– | – | CCOc1cc2c(cc1O)/C(=N\OC)C[C@@H]1[C@@H]2CC[C@]2(C)[C@@H](O)CC[C@@H]12 | 0.27 | – | –
0.97 | – | CCOc1cc2c(cc1O)CCCC1C2CC[C@@]2(C)C1CC[C@@H]2O (some centres undefined) | 2.48 | 56 | –
99 | – | CCOc1cc2c(cc1O)C/C(=N\O)CC1C2CC[C@@]2(C)C1CC[C@@H]2O (some centres undefined) | 42.7 | – | –
– | > 200 | CCOc1cc2c(cc1O)[C@H](NC(C)=O)CC[C@H]1C3CC[C@H](O)[C@@]3(C)CC[C@H]21 (some centres undefined) | 90.4 | – | –
130 | – | CCOc1cc2c(cc1O)C(=O)CCC1C2CC[C@@]2(C)C1CC[C@@H]2O (some centres undefined) | 14.4 | – | –
8.1 | – | CCOc1cc2c(cc1O)CC(=O)CC1C2CC[C@@]2(C)C1CC[C@@H]2O (some centres undefined) | 11.5 | – | –
– | 8.2 | CCOc1cc2c(cc1O)C(=O)CCC1C2CC[C@@]2(C)C1CC[C@@H]2OC(C)=O (some centres undefined) | – | – | –
3 | – | CCOc1cc2c(cc1O)C(=O)C[C@@H]1[C@@H]2CC[C@]2(C)[C@@H](O)CC[C@@H]12 | 0.13 | 19 | –
– | 0.83 | CC(=O)O[C@H]1C(=O)[C@@]2(C)[C@H]([C@H](OC(=O)c3ccccc3)[C@]3(O)C[C@H](OC(=O)[C@H](O)[C@@H](NC(=O)c4ccccc4)c4ccccc4)C(C)=C1C3(C)C)[C@]1(OC(C)=O)CO[C@@H]1C[C@@H]2O [PACLITAXEL] | – | – | –
– | > 200 | CCOc1cc2c(cc1OC(C)=O)/C(=N/OC)CCC1C2CC[C@@]2(C)C1CC[C@@H]2OC(C)=O (some centres undefined) | – | – | –
– | 360 | CCOc1cc2c(cc1OC(C)=O)C(=O)CCC1C2CC[C@@]2(C)C1CC[C@@H]2O (some centres undefined) | – | – | –
0.85 | – | CCOc1cc2c(cc1O)C=CCC1C2CC[C@@]2(C)C1CC[C@@H]2O (some centres undefined) | 1.32 | – | –
57 | – | CCOc1cc2c(cc1O)/C(=N/O)CCC1C2CC[C@@]2(C)C1CC[C@@H]2O (some centres undefined) | 51.3 | – | –
> 400 | – | CCOc1cc2c(cc1OC(C)=O)CCCC1C2CC[C@@]2(C)C1CC[C@@H]2OC(C)=O (some centres undefined) | 14.5 | – | –
– | > 400 | CCOc1cc2c(cc1OC(C)=O)CC(=O)CC1C2CC[C@@]2(C)C1CC[C@@H]2OC(C)=O (some centres undefined) | – | – | –
6.9 | – | CCOc1cc2c(cc1O)[C@@H](NC(C)=O)CCC1C2CC[C@@]2(C)C1CC[C@@H]2O (some centres undefined) | 7 | – | –

SMILES | IC50 (Tubulin [1]) [µM] | EC50 (Tubulin [2]) [µM] | MGM (Cell line) [µM] | inhibition (Tubulin (Bos taurus) [3]) [%] | inhibition (Tubulin (Bos taurus) [4]) [%]
CCOc1cc2c(cc1OC(C)=O)C(=O)C[C@@H]1[C@@H]2CC[C@]2(C)[C@@H](OC(C)=O)CC[C@@H]12 | – | > 400 | – | – | –
CCOc1cc2c(cc1O)CC[C@@H]1[C@@H]2CC[C@]2(C)[C@@H](O)CC[C@@H]12 | 0.66 | – | 0.076 | 51 | 87
COc1cc2c(cc1O)CC[C@@H]1[C@@H]2CC[C@]2(C)[C@@H](O)CC[C@@H]12 [2-METHOXYESTRADIOL] | 1.4 | – | 1.3 | 19 | 60

Source: ChEMBL document CHEMBL1132943, “Synthesis of B-ring homologated estradiol analogues that modulate tubulin polymerization and microtubule stability” (J Med Chem, 2000)
